Source: US20240398771A1, “TREATMENT OF SCLERODERMA AND RAYNAUD'S SYNDROME” (Aisa Pharma, Inc., priority 2023, published 2024)

Experiments:
participants with SSc-RP [1] = assay: Average duration of weekly symptomatic RP attacks (minutes); assay type: in vivo, human; details: ITT Part A
Excerpt: The relevant metrics measured by this tool daily are: • Study medication • SSc-RP symptoms (Reporting an attack including duration of attack) • Severity of the attack considering all symptoms of the attack e.g. tingling, numbness, pain, color changes (VAS 0-10 cm scale) • Participant's location at the time of the attack (inside home/outside home) • Selecting symptoms experienced during the attack (tingling, numbness, pain, color changes, other) • Pain rating during the attack (11-point Likert scale) • The RCS based on how much difficulty participants had with Raynaud's today, how many attacks the participant had, and how long they lasted. Participants will also be asked to consider how much pain, numbness, or other symptoms the Raynaud's caused in fingers (including painful sores), and how much the Raynaud's alone affected the use of hands today (VAS 0-10 cm scale).
The absolute change in average duration of weekly RP attacks from baseline to the end of each dosing period was and will be a secondary outcome variable. The sponsor-developed participant-informed diary was and will be used to record data. Average duration of weekly RP attacks is defined as the total duration of RP attacks divided by total number of RP attacks within the last 7 days of each dosing period. Total duration of RP attacks during the last 7 days of screening period divided by the total number of RP attacks will be used as baseline for the analysis of all periods. The variable will be calculated similar to frequency data as before.

participants with SSc-RP [2] = assay: SHAQ Visual Analog Scale - Intestinal Problems; assay type: in vivo, human; details: Cilnidipine 20 mg; Modified ITT, Part A
Experimental: Results: Patients in the study were administered the Scleroderma Health Assessment Questionnaire (SHAQ) at the time of study entry and during clinic visits following the treatment period. The study is a two-part, parallel arm design, prospective, double-blind, randomized study conducted in Australia (Flinders Medical Center). 27 patients were randomized into the first phase of the study, following which a DSMB meeting was held, which reviewed data on the primary study endpoint and key Raynaud's secondary endpoints. Data on the SHAQ was not available for the DSMB to review. The mITT population, in which any data was available post treatment was 24 patients was the analysis population for this first part of the study. The second part (i.e., part B) of the study will randomize 36 patients in a double blind, randomized, prospective, placebo controlled, crossover study. In the first part (i.e., Part A) of the study for which data is presented, patients were randomized into 6 groups, cilnidipine at two doses (10 and 20 mg) alone and in combination with tadalafil 5 mg, tadalafil 5 mg alone, and placebo. […] The DSMB recommended that the study proceed into its double blind prospective cross overpowered second phase and compare cilnidipine 20 mg alone to placebo. […] Cilnidipine treatment may reduce patient-reported SSc disease disability compared to placebo • b. Cilnidipine treatment may reduce patient-reported SSc disease alternative disability compared to placebo • c. Cilnidipine treatment may reduce patient-reported SSc disease pain* compared to placebo • d. Cilnidipine treatment may reduce patient-reported SSc disease severity compared to placebo • e. Cilnidipine treatment may reduce patient-reported SSc disease skin ulcer severity rating compared to placebo • f Cilnidipine treatment may reduce patient-reported SSc disease breathing difficulty compared to placebo • g. […] SSc disease pain comprises not only pain from Raynaud's but joint pain, headache, odynophagia, back pain, pain from skin ulceration, and neuropathic pain). Table E includes results of the Scleroderma Health Assessment Questionnaire.

[3] = Excluding Outliers, Baseline RCS subgroup 1 (Table B-4, stratum not given), last 7 days of screening period, listed as Cilnidipine 20 mg
[4] = Excluding Outliers, Baseline RCS subgroup 1 (Table B-4, stratum not given), last 7 days of screening period, listed as Pooled Cilnidipine
[5] = Baseline RCS subgroup 1 (Table B-3, stratum not given), last 7 days of dosing period, listed as Cilnidipine 10 mg
[6] = Baseline RCS subgroup 1 (Table B-3, stratum not given), last 7 days of dosing period, listed as Cilnidipine 20 mg
[7] = Baseline RCS subgroup 1 (Table B-3, stratum not given), last 7 days of dosing period, listed as Pooled Cilnidipine
[8] = Baseline RCS subgroup 1 (Table B-3, stratum not given), last 7 days of screening period, listed as Cilnidipine 10 mg
[9] = Baseline RCS subgroup 1 (Table B-3, stratum not given), last 7 days of screening period, listed as Cilnidipine 20 mg
[10] = Baseline RCS subgroup 1 (Table B-3, stratum not given), last 7 days of screening period, listed as Pooled Cilnidipine

COCCOC(=O)C1=C(C)NC(C)=C(C(=O)OC/C=C/c2ccccc2)C1c1cccc([N+](=O)[O-])c1 (stereo not shown) [Cilnidipine, 1,4-dihydro-2,6-dimethyl,4-(3-nitrophenyl)-3,5-pyridinedicarboxylic acid 2-methoxyethyl (2 E)-3-phenyl-2-propenyl ester]
Average duration of weekly symptomatic RP attacks, Baseline, Q1 (participants with SSc-RP [1]; [3]): 13.33 min
Average duration of weekly symptomatic RP attacks, Baseline, Q3 (participants with SSc-RP [1]; [3]): 26.39 min
Average duration of weekly symptomatic RP attacks, Baseline (participants with SSc-RP [1]; [4]): 13.3 min
Average duration of weekly symptomatic RP attacks, Baseline, Max (participants with SSc-RP [1]; [4]): 48.4 min
Average duration of weekly symptomatic RP attacks, Baseline, Mean (participants with SSc-RP [1]; [4]): 29.37 min
Average duration of weekly symptomatic RP attacks, Baseline, Median (participants with SSc-RP [1]; [4]): 26.39 min
Average duration of weekly symptomatic RP attacks, Baseline, Q1 (participants with SSc-RP [1]; [4]): 13.33 min
Average duration of weekly symptomatic RP attacks, Baseline, Q3 (participants with SSc-RP [1]; [4]): 48.38 min
Average Duration of weekly symptomatic RP attacks, Max (participants with SSc-RP [1]; [5]): 31.6, 31.6 minutes
Average Duration of weekly symptomatic RP attacks, Min (participants with SSc-RP [1]; [5]): 31.6, 31.6 minutes
Average duration of weekly symptomatic RP attacks, Change from Baseline, Max (participants with SSc-RP [1]; [5]): −16.7, −16.7 minutes
Average duration of weekly symptomatic RP attacks, Change from Baseline, Q1 (participants with SSc-RP [1]; [5]): −16.74, −16.74 minutes
Average duration of weekly symptomatic RP attacks, Change from Baseline, Q3 (participants with SSc-RP [1]; [5]): −16.74, −16.74 minutes
Average duration of weekly symptomatic RP attacks, Percent Change from Baseline, Max (participants with SSc-RP [1]; [5]): −34.6, −34.6%
Average duration of weekly symptomatic RP attacks, Percent Change from Baseline, Min (participants with SSc-RP [1]; [5]): −34.6, −34.6%
Average duration of weekly symptomatic RP attacks, Percent Change from Baseline, Q3 (participants with SSc-RP [1]; [5]): −34.60, −34.60%
Average Duration of weekly symptomatic RP attacks (participants with SSc-RP [1]; [6]): 3.0 min
Average Duration of weekly symptomatic RP attacks, Max (participants with SSc-RP [1]; [6]): 30.5 min
Average Duration of weekly symptomatic RP attacks, Q1 (participants with SSc-RP [1]; [6]): 3.00 min
Average Duration of weekly symptomatic RP attacks, Q3 (participants with SSc-RP [1]; [6]): 30.45 min
Average duration of weekly symptomatic RP attacks, Change from Baseline (participants with SSc-RP [1]; [6]): -10.3 min
Average duration of weekly symptomatic RP attacks, Change from Baseline, Max (participants with SSc-RP [1]; [6]): 4.1 min
Average duration of weekly symptomatic RP attacks, Change from Baseline, Q1 (participants with SSc-RP [1]; [6]): -10.33 min
Average duration of weekly symptomatic RP attacks, Change from Baseline, Q3 (participants with SSc-RP [1]; [6]): 4.07 min
Average duration of weekly symptomatic RP attacks, Percent Change from Baseline, Max (participants with SSc-RP [1]; [6]): 15.4%
Average duration of weekly symptomatic RP attacks, Percent Change from Baseline, Min (participants with SSc-RP [1]; [6]): −77.5%
Average duration of weekly symptomatic RP attacks, Percent Change from Baseline, Q1 (participants with SSc-RP [1]; [6]): −77.50%
Average Duration of weekly symptomatic RP attacks (participants with SSc-RP [1]; [7]): 3.0 min
Average Duration of weekly symptomatic RP attacks, Max (participants with SSc-RP [1]; [7]): 31.6 min
Average Duration of weekly symptomatic RP attacks, Q1 (participants with SSc-RP [1]; [7]): 3.00 min
Average Duration of weekly symptomatic RP attacks, Q3 (participants with SSc-RP [1]; [7]): 31.64 min
Average duration of weekly symptomatic RP attacks, Change from Baseline (participants with SSc-RP [1]; [7]): -16.7 min
Average duration of weekly symptomatic RP attacks, Change from Baseline, Max (participants with SSc-RP [1]; [7]): 4.1 min
Average duration of weekly symptomatic RP attacks, Change from Baseline, Q1 (participants with SSc-RP [1]; [7]): -16.74 min
Average duration of weekly symptomatic RP attacks, Change from Baseline, Q3 (participants with SSc-RP [1]; [7]): 4.07 min
Average duration of weekly symptomatic RP attacks, Percent Change from Baseline, Max (participants with SSc-RP [1]; [7]): 15.4%
Average duration of weekly symptomatic RP attacks, Percent Change from Baseline, Median (participants with SSc-RP [1]; [7]): −34.60%
Average duration of weekly symptomatic RP attacks, Percent Change from Baseline, Min (participants with SSc-RP [1]; [7]): −77.5%
Average duration of weekly symptomatic RP attacks, Percent Change from Baseline, Q1 (participants with SSc-RP [1]; [7]): −77.50%
Average duration of weekly symptomatic RP attacks, Baseline, Max (participants with SSc-RP [1]; [8]): 48.4, 48.4 minutes
Average duration of weekly symptomatic RP attacks, Baseline, Mean (participants with SSc-RP [1]; [8]): 48.38 min
Average duration of weekly symptomatic RP attacks, Baseline, Median (participants with SSc-RP [1]; [8]): 48.38 min
Average duration of weekly symptomatic RP attacks, Baseline, Min (participants with SSc-RP [1]; [8]): 48.4, 48.4 minutes
Average duration of weekly symptomatic RP attacks, Baseline, Q1 (participants with SSc-RP [1]; [8]): 48.38, 48.38 minutes
Average duration of weekly symptomatic RP attacks, Baseline, Q3 (participants with SSc-RP [1]; [8]): 48.38, 48.38 minutes
Average duration of weekly symptomatic RP attacks, Baseline (participants with SSc-RP [1]; [9]): 13.3 min
Average duration of weekly symptomatic RP attacks, Baseline, Max (participants with SSc-RP [1]; [9]): 26.4 min
Average duration of weekly symptomatic RP attacks, Baseline, Mean (participants with SSc-RP [1]; [9]): 19.86 min
Average duration of weekly symptomatic RP attacks, Baseline, Median (participants with SSc-RP [1]; [9]): 19.86 min
Average duration of weekly symptomatic RP attacks, Baseline, Q1 (participants with SSc-RP [1]; [9]): 13.33 min
Average duration of weekly symptomatic RP attacks, Baseline, Q3 (participants with SSc-RP [1]; [9]): 26.39 min
Average duration of weekly symptomatic RP attacks, Baseline (participants with SSc-RP [1]; [10]): 13.3 min
Average duration of weekly symptomatic RP attacks, Baseline, Max (participants with SSc-RP [1]; [10]): 48.4 min
Average duration of weekly symptomatic RP attacks, Baseline, Mean (participants with SSc-RP [1]; [10]): 29.37 min
Average duration of weekly symptomatic RP attacks, Baseline, Median (participants with SSc-RP [1]; [10]): 26.39 min
Average duration of weekly symptomatic RP attacks, Baseline, Q1 (participants with SSc-RP [1]; [10]): 13.33 min
Average duration of weekly symptomatic RP attacks, Baseline, Q3 (participants with SSc-RP [1]; [10]): 48.38 min
Visual Analog Scale-Intestinal Problems, Baseline, Median (participants with SSc-RP [2]): 1.000
